{"source": "patent US20230339902A1", "about": "“TRICYCLIC LIGANDS FOR DEGRADATION OF IKZF2 OR IKZF4” (C4 Therapeutics, Inc., priority 2020, published 2023)", "key": {"GSPT1": {"target": "T1, GSPT1 (Homo sapiens, UniProt P15170+Q96SW2)", "T1 construct": "endogenously expressing GSPT1 with HiBiT fusion tag via CRISPR; endogenous in cells; host or cells: 293T.114 (HiBiT-GSPT1), CRISPR knock-in, generated in house", "T1 sequence (P15170 whole entry, the tested form may be a part)": "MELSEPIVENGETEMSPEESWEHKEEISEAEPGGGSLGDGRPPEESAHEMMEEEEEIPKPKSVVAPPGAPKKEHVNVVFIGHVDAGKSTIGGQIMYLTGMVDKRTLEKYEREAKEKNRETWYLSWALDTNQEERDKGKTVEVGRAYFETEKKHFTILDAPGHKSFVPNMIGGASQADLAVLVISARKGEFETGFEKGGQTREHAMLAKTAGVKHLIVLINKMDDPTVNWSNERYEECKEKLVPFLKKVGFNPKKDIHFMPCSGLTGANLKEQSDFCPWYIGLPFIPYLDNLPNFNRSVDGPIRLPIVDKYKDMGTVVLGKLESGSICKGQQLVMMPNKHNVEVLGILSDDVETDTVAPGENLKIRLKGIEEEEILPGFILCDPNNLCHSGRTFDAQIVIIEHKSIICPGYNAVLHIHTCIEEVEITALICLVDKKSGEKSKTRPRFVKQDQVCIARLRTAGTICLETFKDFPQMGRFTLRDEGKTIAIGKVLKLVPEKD", "T1 sequence (Q96SW2 whole entry, the tested form may be a part)": "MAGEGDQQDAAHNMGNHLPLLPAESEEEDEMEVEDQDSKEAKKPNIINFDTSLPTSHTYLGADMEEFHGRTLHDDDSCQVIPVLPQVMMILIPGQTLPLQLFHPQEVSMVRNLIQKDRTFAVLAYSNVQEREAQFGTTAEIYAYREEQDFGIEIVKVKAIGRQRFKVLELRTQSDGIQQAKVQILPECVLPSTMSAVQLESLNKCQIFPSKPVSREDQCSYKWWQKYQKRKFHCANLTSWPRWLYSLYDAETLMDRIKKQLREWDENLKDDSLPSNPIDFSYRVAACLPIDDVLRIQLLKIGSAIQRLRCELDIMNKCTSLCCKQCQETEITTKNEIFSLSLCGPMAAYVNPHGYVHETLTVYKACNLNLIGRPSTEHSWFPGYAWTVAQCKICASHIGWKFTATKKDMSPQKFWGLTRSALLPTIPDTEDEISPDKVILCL", "T1 sequence (Q16531 whole entry partner, the tested form may be a part)": "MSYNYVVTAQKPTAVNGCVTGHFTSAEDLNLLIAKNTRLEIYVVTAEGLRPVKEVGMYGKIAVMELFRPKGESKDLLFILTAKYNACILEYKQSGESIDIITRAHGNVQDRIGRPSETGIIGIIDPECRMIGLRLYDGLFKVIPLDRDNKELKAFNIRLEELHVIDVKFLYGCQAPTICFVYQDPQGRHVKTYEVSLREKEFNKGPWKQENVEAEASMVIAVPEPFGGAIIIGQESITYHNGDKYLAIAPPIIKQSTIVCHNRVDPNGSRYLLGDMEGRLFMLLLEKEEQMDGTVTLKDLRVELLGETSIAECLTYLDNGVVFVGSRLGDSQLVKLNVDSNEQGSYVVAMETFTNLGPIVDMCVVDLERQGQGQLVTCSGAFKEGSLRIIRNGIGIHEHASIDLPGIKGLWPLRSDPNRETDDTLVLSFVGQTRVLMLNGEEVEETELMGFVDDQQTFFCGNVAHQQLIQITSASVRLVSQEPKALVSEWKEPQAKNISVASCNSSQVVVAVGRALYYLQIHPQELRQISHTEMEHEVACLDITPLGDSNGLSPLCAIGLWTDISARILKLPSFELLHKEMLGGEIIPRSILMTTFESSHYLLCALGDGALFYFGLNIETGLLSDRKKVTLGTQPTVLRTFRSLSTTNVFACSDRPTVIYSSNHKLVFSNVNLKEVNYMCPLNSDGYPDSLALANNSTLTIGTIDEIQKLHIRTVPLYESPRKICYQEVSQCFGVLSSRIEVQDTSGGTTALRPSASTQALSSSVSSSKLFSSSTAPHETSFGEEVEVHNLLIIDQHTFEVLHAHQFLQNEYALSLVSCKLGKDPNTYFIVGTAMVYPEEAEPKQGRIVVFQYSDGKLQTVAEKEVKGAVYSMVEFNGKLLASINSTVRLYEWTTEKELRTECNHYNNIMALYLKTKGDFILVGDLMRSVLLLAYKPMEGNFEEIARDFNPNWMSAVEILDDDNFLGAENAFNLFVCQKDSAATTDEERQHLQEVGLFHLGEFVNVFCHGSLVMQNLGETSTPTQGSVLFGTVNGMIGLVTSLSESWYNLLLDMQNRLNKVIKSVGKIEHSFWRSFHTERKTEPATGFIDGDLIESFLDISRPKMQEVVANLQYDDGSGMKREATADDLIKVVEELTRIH", "assay": "GSPT1 degradation assay, HiBiT method (Nano-Glo HiBiT Lytic Assay)", "type": "cell-based", "conditions": "293T.114 (HiBiT-GSPT1) cells, 6 hours", "protocol": "Example 62 GSPT1 Degradation Assay\nDMEM no-phenol red medium and fetal bovine serum (FBS) were purchased from Gibco (Grand Island, NY, USA). Nano-Glo® HiBiT Lytic Assay System was purchased from Promega (Madison, WI, USA). 293T.114 (HiBiT-GSPT1) cell line was generated in house, endogenously expressing GSPT1 with HiBiT fusion tag via CRISPR. Cell culture flasks and 384-well microplates were acquired from VWR (Radnor, PA, USA).\nGSPT1 Degradation Analysis\n(§1) GSPT1 degradation was determined based on quantification of luminescent signal using Nano-Glo® HiBiT Lytic Assay kit. Test compounds were added to the 384-well plate from a top concentration of 10 µM with 11 points, half log titration in duplicates. 293T.114 cells were added into 384-well plates at a cell density of 6000 cells per well. The plates were kept at 37° C. with 5% CO2 for 6 hours. The cells treated in the absence of the test compound were the negative control and the cells without Nano-Glo® HiBiT Lytic reagent were the positive control. After 6-hour incubation, Nano-Glo® HiBiT Lytic Assay reagents were added to the designated wells. Luminescence was acquired on EnVision™ Multilabel Reader (PerkinElmer, Santa Clara, CA, USA)."}, "IKZF2": {"target": "T2, IKZF2 (Homo sapiens, UniProt Q96SW2+Q9UKS7)", "T2 construct": "endogenously expressing IKZF2 with HiBiT fusion tag via CRISPR; host or cells: JURKAT.21 (IKZF2-HiBiT), CRISPR knock-in", "T2 sequence (Q9UKS7 whole entry, the tested form may be a part)": "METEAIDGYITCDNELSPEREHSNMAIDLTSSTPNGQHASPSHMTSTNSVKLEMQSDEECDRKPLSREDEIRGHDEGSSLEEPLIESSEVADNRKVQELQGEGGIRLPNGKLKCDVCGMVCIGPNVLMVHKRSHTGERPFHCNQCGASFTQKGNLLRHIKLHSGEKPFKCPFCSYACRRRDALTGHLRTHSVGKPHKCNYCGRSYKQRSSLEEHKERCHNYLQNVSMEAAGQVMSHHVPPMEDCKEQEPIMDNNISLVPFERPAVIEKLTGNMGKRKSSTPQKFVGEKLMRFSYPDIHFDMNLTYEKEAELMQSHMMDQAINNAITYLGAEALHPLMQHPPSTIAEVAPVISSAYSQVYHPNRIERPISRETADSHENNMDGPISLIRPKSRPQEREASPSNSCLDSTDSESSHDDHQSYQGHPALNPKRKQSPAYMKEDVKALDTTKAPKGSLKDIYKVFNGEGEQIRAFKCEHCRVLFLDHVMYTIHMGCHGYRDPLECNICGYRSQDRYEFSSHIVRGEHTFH", "T2 sequence (Q96SW2 whole entry, the tested form may be a part)": "as the sequence (Q96SW2 whole entry, the tested form may be a part) above", "T2 sequence (Q16531 whole entry partner, the tested form may be a part)": "as the sequence (Q16531 whole entry partner, the tested form may be a part) above", "assay": "IKZF2 degradation assay, HiBiT method (Nano-Glo HiBiT Lytic Assay)", "type": "cell-based", "conditions": "JURKAT.21 (IKZF2-HiBiT) cells", "source_text": "Example 61 IKZF2 Degradation Assay\nRPMI 1640 Medium without phenol red and fetal bovine serum (FBS) were purchased from Gibco (Grand Island, NY, USA). Nano-Glo® HiBiT Lytic Assay System was purchased from Promega (Madison, WI, USA). JURKAT.21 (IKZF2-HiBiT) cell line, endogenously expressing IKZF2 with HiBiT fusion tag via CRISPR, was purchasing from Synthego (Menlo Park, CA, USA). Cell culture flasks and 384-well microplates were acquired from VWR (Radnor, PA, USA).\nIKZF2 Degradation Analysis\nas §1, with “IKZF2” for “GSPT1”, “JURKAT.216” for “293T.114”, “5000” for “6000”, “6 or 24” for “6”, “6-hour or 24-hour” for “6-hour”, “cells.” for “designated wells.”"}, "[1]": {"conditions": "6 hours, read-out: HiBiT-Degradation JURKAT.21 IKZF2 6 hours DC50"}, "[2]": {"conditions": "6 hours, read-out: HiBiT-Degradation JURKAT.21 IKZF2 6 hours Emax"}}, "note": "Read-outs that look alike come from different tables or passages of the source.", "data": [{"smiles": "O=C1CCC(N2C(=O)c3ccc(C4(F)CCN(Cc5ccccc5)CC4)c4cccc2c34)C(=O)N1", "note": "(centres unmarked) [Compound 96, 3-[5-(1-benzyl-4-fluoro-4-piperidyl)-2-oxo-benzo[cd]indol-1-yl]piperidine-2,6-dione]", "values": [{"measurement": "DC50", "setting": "GSPT1", "result": "> 10", "unit": "µM"}, {"measurement": "Emax", "setting": "GSPT1", "result": "60 to 95", "unit": "%"}, {"measurement": "DC50", "setting": "IKZF2; [1]", "result": "> 10", "unit": "µM"}, {"measurement": "Emax", "setting": "IKZF2; [2]", "result": "60 to 95", "unit": "%"}]}, {"smiles": "CN1CC(c2ccc3c4c(cccc24)N(C2CCC(=O)NC2=O)C3=O)C1", "note": "(centres unmarked) [Compound 102, 3-[5-(1-methylazetidin-3-yl)-2-oxo-benzo[cd]indol-1-yl]piperidine-2,6-dione]", "values": [{"measurement": "DC50", "setting": "GSPT1", "result": "> 10", "unit": "µM"}, {"measurement": "Emax", "setting": "GSPT1", "result": "60 to 95", "unit": "%"}, {"measurement": "DC50", "setting": "IKZF2; [1]", "result": "> 10", "unit": "µM"}, {"measurement": "Emax", "setting": "IKZF2; [2]", "result": "60 to 95", "unit": "%"}, {"measurement": "DC50", "setting": "IKZF2; 24 hours, read-out: HiBiT-Degradation JURKAT.21 IKZF2 24 hours DC50", "result": "> 10", "unit": "µM"}, {"measurement": "Emax", "setting": "IKZF2; 24 hours, read-out: HiBiT-Degradation JURKAT.21 IKZF2 24 hours Emax", "result": "60 to 95", "unit": "%"}]}, {"smiles": "CN1CCC(F)(c2ccc3c4c(cccc24)N(C2CCC(=O)NC2=O)C3=O)CC1", "note": "(centres unmarked) [Compound 97]", "values": [{"measurement": "DC50", "setting": "GSPT1", "result": "> 10", "unit": "µM"}, {"measurement": "Emax", "setting": "GSPT1", "result": "60 to 95", "unit": "%"}, {"measurement": "DC50", "setting": "IKZF2; [1]", "result": "> 10", "unit": "µM"}, {"measurement": "Emax", "setting": "IKZF2; [2]", "result": "60 to 95", "unit": "%"}]}]}
